System: M. circinelloides ATCC 26759
Assay: Checkerboard MIC assay, FICI
Type: cell-based, Mucor circinelloides
Conditions: combination with Compound 1
Text: The following assay was used to determine the minimum inhibitory concentration (MIC) and fractional inhibitory concentration index (FICI) for combinations of an antifungal agent and a glycopeptide antibacterial agent. This assay and methods for calculating FICI are well known in the art. See, for example, Eliopoulos, E. G. and R. Moellering, Jr. “Antimicrobial Combinations” in Antibiotics in Laboratory Medicine, edited by V. Lorian, 4th Ed., Williams & Wilkins, Baltimore, MD, pp. 330-396 (1996); […] et al., Antimicrobial Agents and Chemotherapy 47(4):1416-1418 (2003); or […] et al., Antimicrobial Agents and Chemotherapy 46(10):3323-3326 (2002). […] The MIC of the glycopeptide antibacterial agent determined from this experiment was used in FIC calculations. […]

| SMILES | FICI |
| --- | --- |
| C[C@@H]1[C@H](O)[C@@H](C)/C=C/C=C/C=C/C=C/C=C/C=C/C=C/[C@H](O[C@@H]2O[C@H](C)[C@@H](O)[C@H](N)[C@@H]2O)C[C@@H]2O[C@](O)(C[C@@H](O)C[C@@H](O)[C@H](O)CC[C@@H](O)C[C@@H](O)CC(=O)O[C@H]1C)C[C@H](O)[C@H]2C(=O)O [Amphotericin B] | 0.26 |
| C[C@@H]1[C@H](O)[C@@H](C)/C=C/C=C/CC/C=C/C=C/C=C/C=C/C(O[C@H]2O[C@H](C)[C@@H](O)[C@H](N)[C@@H]2O)CC2O[C@](O)(CC(O)C(O)CCC(O)CC(O)CC(O)CC(=O)O[C@H]1C)CC(O)C2C(=O)O (some centres unmarked) [Nystatin] | 0.28 |

From US7521418B2, “Use of a polyene macrolide antifungal agent in combination with a glycopeptide antibacterial agent” (Theravance, Inc., priority 2003, dated 2009)
